# According to US4839387A, “Derivative of thiazolidine-4-carboxylic acid, its preparation and pharmaceutical compositions containing it” (Poli Industria Chimica S.P.A., priority 1987, dated 1989):
# Non-standard residues stand in square brackets, D forms with d. Residues, ends and D or L forms follow the SMILES beside them. pGlu = O=C1CC[C@@H](C(=O)O)N1; Thz = O=C(O)[C@@H]1CSCN1
# Experiments:
# Male Wistar rats [1] = experiment: Paracetamol intoxication in the rat, test after single i.p. administration; assay type: in vivo; settings: for Death rate % / % distribution of liver impairment degrees: degree 0 / % distribution of liver impairment degrees: degree 1 / % distribution of liver impairment degrees: degree 2 / % distribution of liver impairment degrees: degree 3: single administration; for Death rate %: 48 hours after paracetamol 5000 mg/kg oral; for % distribution of liver impairment degrees: degree 0: degree 0 = normal histologic examination; for % distribution of liver impairment degrees: degree 1: degree I = centrolobular necrosis less than 25% of the lobule; for % distribution of liver impairment degrees: degree 2: degree II = extended centrolobular necrosis; for % distribution of liver impairment degrees: degree 3: degree III = massive necrosis
# Description: (§1) Male Wistar rats, mean weight of 150±10 g were used, which, after suitable housing, were subjected to the test:
# (a) Test after single i.p. administration
# The animals were divided in 7 groups, comprising 20 animals each, according to the following scheme:
# II group: PGTCA 4.1 μmoles/kg i.p.
# III group: PGTCA 41 μmoles/kg i.p.
# IV group: PGTCA 205 μmoles/kg i.p.
# V group: PGA 4.1 μmoles/kg +TCA 4.1 μmoles/kg
# VI group: PGA 41 μmoles/kg +TCA 41 μmoles/kg
# VII group: PGA 205 umoles/kg +TCA 205 μmoles/kg.
# The animals of each group, fasting since 12 hours, were treated with paracetamol at the dose of 5000 mg/kg by the oral route. The different pharmacological treatments were carried out contemporaneously with the paracetamol administration. After 48 hours from treatment, the death-rate was assessed in the various experimental groups. The liver was taken from the surviving animals, sacrificed by decapitation, and from the dead animals and an histopathologic examination was carried out.
# The degree of liver impairment has been evaluated as: degree O: normal histologic examination degree I: centrolobular necrosis extended to less than 25% of the lobule degree II: extended centrolobular necrosis, with lesions bridging adjacent centrolobular areas degree III: massive necrosis.
# (§2) In order to evaluate the lesion degree, 6 different sections were taken from each organ.
# Male Wistar rats [2] = experiment: Paracetamol intoxication in the rat, test after repeated i.p. administration; assay type: in vivo; settings: for Death rate %: repeated administration (daily for 8 days and on), 48 hours after paracetamol 5000 mg/kg per os; for % distribution of liver impairment degrees: degree 0 / % distribution of liver impairment degrees: degree 1 / % distribution of liver impairment degrees: degree 2 / % distribution of liver impairment degrees: degree 3: repeated administration; for % distribution of liver impairment degrees: degree 0: degree 0 = normal histologic examination; for % distribution of liver impairment degrees: degree 1: degree I = centrolobular necrosis less than 25% of the lobule; for % distribution of liver impairment degrees: degree 2: degree II = extended centrolobular necrosis; for % distribution of liver impairment degrees: degree 3: degree III = massive necrosis
# Description: as §1
# The degree of liver impairment has been evaluated as: degree O: normal histologic examination […]
# degree II: extended centrolobular necrosis, with lesions bridging adjacent centrolobular areas degree III: massive necrosis.
# as §2
# (b) Test after repeated i.p. administration
# The same treatment schedule as in (a) was used.
# The animals of groups II-VII were treated daily for 8 days. At the 8th day, contemporaneously to the various considered pharmacological treatments, the animals of the 7 groups (fasting since 12 hours) were administered with paracetamol (5000 mg/kg per os).
# After 48 hours from the paracetamol administration, the surviving animals were examined and the liver was subjected to the histopathologic examination.
# Swiss male mice = experiment: Effects on the consequences of exposure to ionizing radiation; assay type: in vivo, mouse; settings: for Death-rate % 10 gg: 10 days after 700 r of x rays; for Death-rate % 15 gg: 15 days after 700 r of x rays
# Description: Swiss male mice weighing 30±5 g, divided in 7 groups of 20 animals each, were used according to the above reported schedule.
# The pharmacological treatments were carried out for 15 days before the irradiation and prosecuted up to the end of the experiment. The control animals received the vehicle alone.
# At the 15th day, all the animals were irradiated (Philip Metalix® apparatus, 180 KV, 15 mA, with Cu filter 0.5 mm +AI mm) with the administration of 700 r of x rays.
# All the animals were checked daily, for 15 days after irradiation. The radio-protection degree was calculated as survival % at 10 and 15 days.
# male rats = experiment: Delayed-type hypersensitivity induced by dinitrochlorobenzene (DNCB); assay type: in vivo, rat
# Description: (§3) For this purpose, male adult rats (5-6 months old) were used as animal model with normal immuno-competent system, and old rats (17-18 months) as a paraphysiological immunodeficiency model.
# (§4) The PGTCA treatment has been carried out i.p. at the dose of 1, 10 or 50 mg/kg twice a day for 4 weeks. The used immunological tests were the delayed-type hypersensitivity induced by dinitrochlorobenzene (DNCB) and the T-lymphocyte response to concanavaline A (ConA).
# After 4 weeks of PGTCA pre-treatment (or vehicle), 0.02 ml of DNCB (solubilized in acetone at the concentration of 200 mg/ml) was applied to each animal (5 rats per group) on the cutis of the back, on an area of about 1 cm^2. The subsequent inflammatory reaction was evaluated by measuring the diameter of the reddish area by means of a thickness gauge from day 1 to day 7.
# During this period the animals were constantly treated.
# [3] = test system: T-lymphocyte response to concanavaline A; experiment: Test of blastization with ConA (3H-thymidine incorporation) after in vivo treatment; design: species or system rat; settings: for 3H-thymidine cpm/well: ConA 2.5 μg/ml; for 3H-thymidine increase %: versus untreated
# Description: as §3, §4
# After 4 weeks of PGTCA treatment at the doses of 1,10 and 50 mg/kg, the animals were sacrificed and the spleen was removed in sterile conditions. The isolation of lymphocytes was obtained by an isolimph gradient. The lymphocytes were incubated in micro-walls, at the concentration of 1×10^6 cells/ml, in the presence of ConA (2.5 μg/ml), for 48 hours. The mitogen activity was evaluated by incorporation of ^3 H-thymidine for 16 hours.
# old rat = experiment: Neurocerebral performances in the old rat; assay type: in vivo; settings: 10 mg/kg and even more at 50 mg/kg
# [4] = at the highest and at the intermediate dose
# [5] = PGTCA 4.1 microm/kg ip from 15 days before irradiation
# [6] = PGTCA 41 microm/kg ip from 15 days before irradiation
# [7] = PGTCA 205 microm/kg ip from 15 days before irradiation
smiles,measurement,setting,value
"O=C1CC[C@@H](C(=O)N2CSC[C@H]2C(=O)O)N1 [PGTCA, 3-L-pyroglutamyl-Lthiazolidine-4-carboxylic acid] ([pGlu]-[Thz]-OH)",liver impairment by an high dose of paracetamol,"Male Wistar rats [1]; acute treatment, 205 μmoles/kg i.p. and 41 μmoles/kg i.p.",significant decrease
same,death-rate by paracetamol,Male Wistar rats [1]; [4],reduces the death-rate
same,Death rate %,Male Wistar rats [1]; PGTCA 4.1 microm/kg ip,85%
same,% distribution of liver impairment degrees: degree 0,Male Wistar rats [1]; PGTCA 4.1 microm/kg ip,0%
same,% distribution of liver impairment degrees: degree 1,Male Wistar rats [1]; PGTCA 4.1 microm/kg ip,0%
same,% distribution of liver impairment degrees: degree 2,Male Wistar rats [1]; PGTCA 4.1 microm/kg ip,10%
same,% distribution of liver impairment degrees: degree 3,Male Wistar rats [1]; PGTCA 4.1 microm/kg ip,90%
same,Death rate %,Male Wistar rats [1]; PGTCA 41 microm/kg ip,75%
same,% distribution of liver impairment degrees: degree 0,Male Wistar rats [1]; PGTCA 41 microm/kg ip,0%
same,% distribution of liver impairment degrees: degree 1,Male Wistar rats [1]; PGTCA 41 microm/kg ip,5%
same,% distribution of liver impairment degrees: degree 2,Male Wistar rats [1]; PGTCA 41 microm/kg ip,20%
same,% distribution of liver impairment degrees: degree 3,Male Wistar rats [1]; PGTCA 41 microm/kg ip,75%
same,Death rate %,Male Wistar rats [1]; PGTCA 205 microm/kg ip,60%
same,% distribution of liver impairment degrees: degree 0,Male Wistar rats [1]; PGTCA 205 microm/kg ip,5%
same,% distribution of liver impairment degrees: degree 1,Male Wistar rats [1]; PGTCA 205 microm/kg ip,15%
same,% distribution of liver impairment degrees: degree 2,Male Wistar rats [1]; PGTCA 205 microm/kg ip,15%
same,% distribution of liver impairment degrees: degree 3,Male Wistar rats [1]; PGTCA 205 microm/kg ip,65%
same,Death rate %,Male Wistar rats [2]; PGTCA 4.1 microm/kg ip,85%
same,Death rate %,Male Wistar rats [2]; PGTCA 41 microm/kg ip,70%
same,Death rate %,Male Wistar rats [2]; PGTCA 205 microm/kg ip,50%
same,% distribution of liver impairment degrees: degree 0,Male Wistar rats [2]; PGTCA 4.1 microm/kg ip,0%
same,% distribution of liver impairment degrees: degree 1,Male Wistar rats [2]; PGTCA 4.1 microm/kg ip,0%
same,% distribution of liver impairment degrees: degree 2,Male Wistar rats [2]; PGTCA 4.1 microm/kg ip,10%
same,% distribution of liver impairment degrees: degree 3,Male Wistar rats [2]; PGTCA 4.1 microm/kg ip,90%
same,% distribution of liver impairment degrees: degree 0,Male Wistar rats [2]; PGTCA 41 microm/kg ip,0%
same,% distribution of liver impairment degrees: degree 1,Male Wistar rats [2]; PGTCA 41 microm/kg ip,0%
same,% distribution of liver impairment degrees: degree 2,Male Wistar rats [2]; PGTCA 41 microm/kg ip,35%
same,% distribution of liver impairment degrees: degree 3,Male Wistar rats [2]; PGTCA 41 microm/kg ip,65%
same,% distribution of liver impairment degrees: degree 0,Male Wistar rats [2]; PGTCA 205 microm/kg ip,5%
same,% distribution of liver impairment degrees: degree 1,Male Wistar rats [2]; PGTCA 205 microm/kg ip,15%
same,% distribution of liver impairment degrees: degree 2,Male Wistar rats [2]; PGTCA 205 microm/kg ip,25%
same,% distribution of liver impairment degrees: degree 3,Male Wistar rats [2]; PGTCA 205 microm/kg ip,55%
same,Death-rate % 10 gg,Swiss male mice; [5],20%
same,Death-rate % 10 gg,Swiss male mice; [6],15%
same,Death-rate % 10 gg,Swiss male mice; [7],10%
same,Death-rate % 15 gg,Swiss male mice; [5],45%
same,Death-rate % 15 gg,Swiss male mice; [6],20%
same,Death-rate % 15 gg,Swiss male mice; [7],15%
same,radioprotective activity,Swiss male mice; [4],remarkable radioprotective activity
same,"response to DNCB, evaluated as inflammation area","male rats; old animals, already at the dose of 10 mg/kg",maximum enhancing increase
same,"response to DNCB, evaluated as inflammation area","male rats; young animals, only at the dose of 50 mg/kg",significant increase
same,3H-thymidine cpm/well,"[3]; Adult rats (5-6 months), 1 mg/kg i.p. twice a day for 4 weeks",31806 ± 970 cpm/well
same,3H-thymidine increase %,"[3]; Adult rats (5-6 months), 1 mg/kg",-2.1%
same,3H-thymidine cpm/well,"[3]; Adult rats (5-6 months), 10 mg/kg i.p. twice a day for 4 weeks",34165 ± 540 cpm/well
same,3H-thymidine increase %,"[3]; Adult rats (5-6 months), 10 mg/kg",+5.1%
same,3H-thymidine cpm/well,"[3]; Adult rats (5-6 months), 50 mg/kg i.p. twice a day for 4 weeks",35785 ± 240 cpm/well
same,3H-thymidine increase %,"[3]; Adult rats (5-6 months), 50 mg/kg",+10.1%
same,3H-thymidine cpm/well,"[3]; Old rats (17-18 months), 1 mg/kg i.p. twice a day for 4 weeks",23553 ± 923 cpm/well
same,3H-thymidine increase %,"[3]; Old rats (17-18 months), 1 mg/kg",+1.6%
same,3H-thymidine cpm/well,"[3]; Old rats (17-18 months), 10 mg/kg i.p. twice a day for 4 weeks",26012 ± 316 cpm/well
same,3H-thymidine increase %,"[3]; Old rats (17-18 months), 10 mg/kg",+12.3%
same,3H-thymidine cpm/well,"[3]; Old rats (17-18 months), 50 mg/kg i.p. twice a day for 4 weeks",27540 ± 439 cpm/well
same,3H-thymidine increase %,"[3]; Old rats (17-18 months), 50 mg/kg",+18.9%
same,improving the neurocerebral performances,old rat,active
